Here are results for 25 molecules from PubChem BioAssay AID330 (DTP/NCI, 2004).

Values joined by “and” are separate entries in the source; they are usually repeats but may differ in a detail not shown here. Equal entries are not always repeated. Toxic doses and inconclusive results are not listed.

The test relates to P388 leukemia ip, CD2F1 mice, survival T/C. Nature of the test: NCI In Vivo Anticancer Drug Screen. Data for tumor model P388 Leukemia (intraperitoneal) in CD2F1 (CDF1) mice. Particulars: endpoint: median survival time, higher = longer survival. In a few lines:
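Mice carrying the transplanted tumor received test compound or vehicle. Survival was recorded in each group, and the value is the treated-group measurement divided by that of the vehicle-treated control group.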

[1] abbreviates: dose: 12.5 mg/kg/injection, schedule: Q01DX009 (ip), vehicle: saline with Tween-80.
Where [2] appears, read: dose: 25.0 mg/kg/injection, schedule: Q01DX009 (ip), vehicle: saline with Tween-80.
The mark [3] stands for this setting: dose: 100.0 mg/kg/injection, schedule: Q01DX009 (ip), vehicle: saline with Tween-80.
[4] abbreviates: dose: 6.25 mg/kg/injection, schedule: Q01DX009 (ip), vehicle: saline with Tween-80.
[5] abbreviates: dose: 50.0 mg/kg/injection, schedule: Q01DX005 (ip), vehicle: Klucel (hydroxypropylcellulose) (HPC).
[6] abbreviates: dose: 100.0 mg/kg/injection, schedule: Q01DX005 (ip), vehicle: Klucel (hydroxypropylcellulose) (HPC).
The mark [7] stands for this setting: dose: 200.0 mg/kg/injection, schedule: Q01DX005 (ip), vehicle: Klucel (hydroxypropylcellulose) (HPC).
Setting [8] is: dose: 50.0 mg/kg/injection, schedule: Q01DX009 (ip), vehicle: Klucel (hydroxypropylcellulose) (HPC).
[9] abbreviates: dose: 25.0 mg/kg/injection, schedule: Q01DX005 (ip), vehicle: Klucel (hydroxypropylcellulose) (HPC).
[10] abbreviates: dose: 50.0 mg/kg/injection, schedule: Q01DX009 (ip), vehicle: saline with Tween-80.
[11] abbreviates: dose: 200.0 mg/kg/injection, schedule: Q01DX009 (ip), vehicle: saline with Tween-80.

As to `CCCCCCCCCCCCCCCCC(C(=O)O)C(O)(CC(=O)O)C(=O)O` (stereo not given), the T/C was 95 % of control (dose: 8.75 mg/kg/injection, schedule: Q01DX009 (ip), vehicle: Klucel (hydroxypropylcellulose) (HPC)); 91 % of control under setting [1]; 101 % of control (dose: 17.5 mg/kg/injection, schedule: Q01DX009 (ip), vehicle: Klucel (hydroxypropylcellulose) (HPC)); 94 % of control under setting [2]; 95 % of control (dose: 35.0 mg/kg/injection, schedule: Q01DX009 (ip), vehicle: Klucel (hydroxypropylcellulose) (HPC)); 87 % of control (dose: 70.0 mg/kg/injection, schedule: Q01DX009 (ip), vehicle: Klucel (hydroxypropylcellulose) (HPC)). In addition, under setting [3], the T/C is 90 % of control.

Regarding `CCOC(=O)C(=CN(C)c1ccc(Cl)cc1)C(=O)OCC`, the T/C by setting is: under setting [4], 102 % of control; under setting [1], 94 % of control; under setting [2], 103 % of control; (dose: 200.0 mg/kg/injection, schedule: Q01DX009 (ip), vehicle: saline) 97 % of control.

`O=[N+]([O-])c1ccc2c(c1)C(N1CCOCC1)c1ccccc1-2` (stereo not given): the T/C is, setting by setting: under setting [5], 98 % of control; under setting [6], 98 % of control; under setting [7], 100 % of control.

Regarding `CCOC(=O)c1c(O)c(Cc2ccccc2)c(=O)n2c1[nH]c1cc(C)c(C)cc12`, the T/C (dose: 7.5 mg/kg/injection, schedule: Q01DX005 (ip), vehicle: saline with Tween-80) is 100 % of control and the T/C (dose: 15.0 mg/kg/injection, schedule: Q01DX005 (ip), vehicle: saline with Tween-80) was 100 % of control.

As to `C=CC[N+](CCO)(CCO)CCCCCCCCCCCCCCCCCC`, the T/C is, setting by setting: under setting [4], 114 % of control; under setting [1], 108 % of control.

Turning to `Oc1ccccc1-c1cc(-c2ccccc2)nc(NCCCCCCNc2nc(-c3ccccc3)cc(-c3ccccc3O)n2)n1`, the T/C was 90 % of control under setting [5] and 90 % of control under setting [6].

On to `Cn1cc(-n2[nH]c(=O)n(-c3ccccc3)c2=O)c(=O)n(C)c1=O`, for which the T/C was 101 % of control under setting [8]; 101 % of control (dose: 100.0 mg/kg/injection, schedule: Q01DX009 (ip), vehicle: Klucel (hydroxypropylcellulose) (HPC)); 96 % of control (dose: 200.0 mg/kg/injection, schedule: Q01DX009 (ip), vehicle: Klucel (hydroxypropylcellulose) (HPC)).

On to `C/C(=N\NC(=S)N1CCN(C2CCCCCC2)CC1)c1ccccn1`, for which the T/C (dose: 1.57 mg/kg/injection, schedule: Q01DX005 (ip), vehicle: saline with Tween-80) was 96 % of control; the T/C (dose: 3.13 mg/kg/injection, schedule: Q01DX005 (ip), vehicle: saline with Tween-80) was 100 % of control; the T/C (dose: 6.25 mg/kg/injection, schedule: Q01DX005 (ip), vehicle: saline with Tween-80) is 114 % of control and 120 % of control.

Turning to `Cc1cc(NCCCCNCCCNc2cc(C)nc3cc([N+](=O)[O-])ccc23)c2ccc([N+](=O)[O-])cc2n1`, the T/C (dose: 12.5 mg/kg/injection, schedule: Q01DX009 (ip), vehicle: other) was 150 % of control.

Turning to `BrC1c2ccccc2-c2nc3ccccc3nc21` (stereo not given), the T/C (dose: 12.5 mg/kg/injection, schedule: Q01DX005 (ip), vehicle: Klucel (hydroxypropylcellulose) (HPC)) is 112 % of control; the T/C under setting [9] is 99 % of control; the T/C under setting [5] is 103 % of control and 115 % of control.

Consider `CCCCCCCCCCCCCC(C)NCc1ccccc1` (stereo not given), for which the T/C by setting is: (dose: 25.0 mg/kg/injection, schedule: Q04DX003 (ip), vehicle: saline with Tween-80) 96 % of control; (dose: 50.0 mg/kg/injection, schedule: Q04DX003 (ip), vehicle: saline with Tween-80) 100 % of control.

As for `O=C1c2cc(Cl)ccc2-c2c(NC(=O)C(Cl)Cl)cc(Cl)cc21`, the T/C under setting [1] is 95 % of control; the T/C (dose: 25.0 mg/kg/injection, schedule: Q01DX009 (ip), vehicle: Klucel (hydroxypropylcellulose) (HPC)) was 100 % of control; the T/C under setting [2] is 95 % of control; the T/C under setting [8] is 88 % of control; the T/C under setting [10] was 100 % of control.

For `Nc1ncnc2c1ncn2C1OC(CO)C2OC(=S)OC21` (stereo not given), the T/C is, setting by setting: under setting [2], 96 % of control; under setting [10], 101 % of control; under setting [3], 100 % of control; under setting [11], 100 % of control.

For `CC1(C)SSCC1=O`, the T/C runs as follows: (dose: 50.0 mg/kg/injection, schedule: Q01DX005 (ip), vehicle: saline) 104 % of control; (dose: 100.0 mg/kg/injection, schedule: Q01DX005 (ip), vehicle: saline) 109 % of control; (dose: 200.0 mg/kg/injection, schedule: Q01DX005 (ip), vehicle: saline) 108 % of control.

`O=[N+]([O-])c1ccc(N2C(c3ccccc3)=N[C@@H](N3CCOCC3)[C@@H]2N2CCOCC2)cc1`: the T/C runs as follows: under setting [5], 101 % of control; under setting [6], 97 % of control; under setting [7], 95 % of control.

As for `Cc1cc(-c2ccc(N=Nc3c(C)nn(-c4ccc(S(=O)(=O)O)cc4)c3O)c(C)c2)ccc1N=Nc1ccc(O)c(C(=O)O)c1`, the T/C runs as follows: under setting [4], 100 % of control; under setting [1], 101 % of control; under setting [2], 93 % of control.

As to `CN(C)c1ccc(-c2nn(C)c3nc(=O)n(C)c(=O)c-3[n+]2[O-])cc1`, the T/C (dose: 1.56 mg/kg/injection, schedule: Q01DX001 (ip), vehicle: saline) is 101 % of control; the T/C (dose: 3.12 mg/kg/injection, schedule: Q01DX001 (ip), vehicle: saline) was 103 % of control; the T/C (dose: 6.25 mg/kg/injection, schedule: Q01DX001 (ip), vehicle: saline) is 100 % of control and 103 % of control.

As to `CCC1(CN(C)C)C(=O)N(C)C(=O)N(C2CCCCC2)C1=O` (stereo not given), the T/C by setting is: under setting [10], 96 % of control; under setting [3], 102 % of control; under setting [11], 107 % of control.

Take `c1ccc(SCCOCCOCCSc2ccccn2)nc1`: the T/C is 103 % of control under setting [9], 108 % of control under setting [5] and 111 % of control under setting [6].

For `CC(=O)NS(=O)(=O)c1ccc(C)cc1`, the T/C is 106 % of control (dose: 100.0 mg/kg/injection, schedule: Q04DX003 (ip), vehicle: Klucel (hydroxypropylcellulose) (HPC)); 107 % of control (dose: 200.0 mg/kg/injection, schedule: Q04DX003 (ip), vehicle: Klucel (hydroxypropylcellulose) (HPC)); 100 % of control (dose: 400.0 mg/kg/injection, schedule: Q04DX003 (ip), vehicle: Klucel (hydroxypropylcellulose) (HPC)).

On to `NC(=O)NN1CC(=O)N(c2ccccc2)CC1=O`, for which the T/C by setting is: under setting [10], 97 % of control; under setting [3], 100 % of control; under setting [11], 95 % of control.

Take `O=C(O)/C=N/OCc1cc2c(cc1Cl)OCO2`: the T/C reads like this: (dose: 50.0 mg/kg/injection, schedule: Q04DX003 (ip), vehicle: saline sonified) 100 % of control; (dose: 100.0 mg/kg/injection, schedule: Q04DX003 (ip), vehicle: saline sonified) 100 % of control; (dose: 200.0 mg/kg/injection, schedule: Q04DX003 (ip), vehicle: saline sonified) 105 % of control.

As for `CNc1cc[nH]c(=O)c1NC(C)=O`, the T/C was 100 % of control (dose: 60.0 mg/kg/injection, schedule: Q01DX005 (ip), vehicle: saline); 101 % of control (dose: 120.0 mg/kg/injection, schedule: Q01DX005 (ip), vehicle: saline); 106 % of control (dose: 240.0 mg/kg/injection, schedule: Q01DX005 (ip), vehicle: saline).

As to `CC[C@@]1(O)C[C@H](OC2CC(N)C(O)C(C)O2)c2c(O)c3c(c(O)c2[C@H]1C(=O)OC)C(=O)c1cccc(O)c1C3=O` (stereo not given in full), the T/C (dose: 1.0 mg/kg/injection, schedule: Q01DX009 (ip), vehicle: water) was 115 % of control; the T/C (dose: 2.0 mg/kg/injection, schedule: Q01DX009 (ip), vehicle: water) was 116 % of control; the T/C (dose: 2.3 mg/kg/injection, schedule: Q01DX009 (ip), vehicle: water) is 123 % of control; the T/C (dose: 12.5 mg/kg/injection, schedule: Q01DX001 (ip), vehicle: water) is 116 % of control; the T/C (dose: 16.0 mg/kg/injection, schedule: Q01DX009 (ip), vehicle: water) was 86 % of control; the T/C (dose: 25.0 mg/kg/injection, schedule: Q01DX001 (ip), vehicle: water) was 150 % of control.

Turning to `O=C1CSC=NN1c1ccccc1`, the T/C is 102 % of control (dose: 60.0 mg/kg/injection, schedule: Q01DX005 (ip), vehicle: saline with Tween-80); 92 % of control (dose: 120.0 mg/kg/injection, schedule: Q01DX005 (ip), vehicle: saline with Tween-80); 108 % of control (dose: 240.0 mg/kg/injection, schedule: Q01DX005 (ip), vehicle: saline with Tween-80).
